Where two headings read alike, the source gives them in different places.
What was measured:
Wild type pNL4-3 = assay: Antiviral activity (EC50), deCIPhR cell system, beta-galactosidase indicator cell readout; type: cell-based, HIV-1
[1] = test system: Recombin ant provirus from the patient 6021959; assay: microbe, parasite or virus in culture; type: cell-based, HIV-1
[2] = test system: Recombin ant provirus from the patient 7007984; assay: microbe, parasite or virus in culture; type: cell-based, HIV-1
Wild type # = assay: Antiviral activity (EC50) in CEMA and CEM-T4 cells; type: cell-based, HIV-1; details: Human immunodeficiency virus 1; wild type # marked a,b = CEMA and CEM-T4 cells
[3] = test system: NNRTI (RTMDR) 5 resistant; assay: microbe, parasite or virus in culture; type: cell-based, HIV-1; details: Human immunodeficiency virus 1
NRTI (RTMC) resistant = assay: microbe, parasite or virus in culture; type: cell-based, HIV-1; details: Human immunodeficiency virus 1
[4] = Cytotoxicity, Alamar Blue Cell Viability Assay; details: deciphr cells
[5] = HIV-1 wild type pNL4-3, cells per table title (deCIPhR, CEMA, CEM-T4), row has no cell mark, presumably deCIPhR, read-out: EC50
[6] = recombinant provirus from patient 6021959, RT resistance mutations M41 L, E44D, T69D, L741, K103N, V108I, V118I, M184V, M230L, T215Y, G333E, read-out: EC50
[7] = recombinant provirus from patient 7007984, RT resistant mutations M41 L, K70R, A985, T215Y, read-out: EC50
[8] = Human immunodeficiency virus 1, CEM-T4

Structure (SMILES)	EC50 (Wild type pNL4-3; [5])	EC50 [1, 6]	EC50 [2, 7]	EC50 (Wild type pNL4-3; [8])	EC50 ([1]; Human immunodeficiency virus 1)	EC50 ([2]; Human immunodeficiency virus 1)	EC50 (Wild type #)	EC50 [3]	EC50 (NRTI (RTMC) resistant)	cytotoxicity (CD50) (deCIPhR™ cell system)	CC50 [4]
Cc1cn([C@H]2C[C@H](N=[N+]=[N-])[C@@H](COP(=O)(O)O)O2)c(=O)[nH]c1=O [AZTM P, reference compound]	63 nM	1710 nM	1030 nM	–	–	–	–	–	–	–	–
CCCCCCCCCCCCCC(=O)OC[C@H]1O[C@@H](n2cc(C)c(=S)[nH]c2=O)C[C@@H]1F [WA- 18, 1-(2,3-dideoxy-3-fluoro-5-O-(12-tetradodecanoyl)-b-D-ribofuranosyl)-4-thio thymine]	–	–	–	421 nM	8340 nM	2400 nM	130 nM	45 nM	150 nM	not toxic	> 200000 nM
COCCCCCCCCCCCC(=O)OC[C@H]1O[C@@H](n2cc(C)c(=S)[nH]c2=O)C[C@@H]1F [WA2 1, 1-(2,3-dideoxy-3-fluoro-5-O-(12-methoxydodecanoyl)-b-D-ribofuranosyl)-4-thiothymine]	–	–	–	269 nM	9260 nM	3150 nM	330 nM	550 nM	180 nM	not toxic	> 200000 nM
Cc1cn([C@H]2C[C@H](F)[C@@H](COC(=O)CCCCCCCCCCCBr)O2)c(=O)[nH]c1=S [WA- 19, 1-(5-O-(12-bromododecanoyl)-2.3-dideoxy-3-fluoro-b-D-ribofuranosyl)-4-th iothymine]	–	–	–	710 nM	10000 nM	–	–	–	–	not toxic	> 200000 nM
Cc1cn([C@H]2C[C@H](F)[C@@H](COP(=O)(O)O)O2)c(=O)[nH]c1=O [FLT MP, reference compound]	10 nM	30 nM	18 nM	–	–	–	–	–	–	–	–
CCSCCCCCCCCCCC(=O)OC[C@H]1O[C@@H](n2cc(C)c(=S)[nH]c2=O)C[C@@H]1F [WA-2 3, 1-(5-O-(2,3-dideoxy-11-thioethylundecanoyl)-3-fluoro-b-D-ribofuranosyl)-4-thiothymine]	–	–	–	965 nM	5520 nM	–	450 nM	480 nM	450 nM	not toxic	> 200000 nM
CCSCCCCCCCCCCCC(=O)OC[C@H]1O[C@@H](n2cc(C)c(=S)[nH]c2=O)C[C@@H]1F [WA-2 2, 1-(2,3-dideoxy-5-O-(12-thioethyldodecanoyl)-3-fluoro-b-D-ribofuranosyl)-4-thiothymine]	–	–	–	998 nM	10000 nM	5920 nM	120 nM	–	75 nM	not toxic	> 200000 nM
Cc1cn([C@H]2C[C@H](F)[C@@H](COC(=O)CCCCCCCCCCCN=[N+]=[N-])O2)c(=O)[nH]c1=S [WA- 2 0, 1-(5-O-(12-azidododecanoyl)-2,3-dideoxy-3-fluoro-b-D-ribofuranosyl)-4-thi othymine]	–	–	–	822 nM	4640 nM	2880 nM	450 nM	100 nM	≤ 100000 nM	not toxic	> 200000 nM

— EP2402356A2, “Modified 2',3'-dideoxynucleosides for treatment infections caused by human immunodeficiency virus (HIV) multidrug resistant strains, method of their synthesis and the pharmaceutical agent containing these nucleosides” (Instytut Biochemii I Biofizyki Pan, priority 2010, dated 2012)
